# Several values for one entry are separate records, joined by “and”; a condition that tells them apart may be missing. Equal entries are not always repeated. Entries after “also recorded” stand apart in the source; their conditions may differ. Where two headings read alike, the source gives them in different places.
# Legend:
# NaV1.2 and NaVβ1 = molecular target: T1, NaV1.2 and NaVβ1 (Rattus norvegicus, UniProt P04775); assay: NaV1.2 currents in Xenopus oocytes; format: cell-based
# T1 construct: expressed in transfected cells; host or cells: Xenopus oocytes
# T1 sequence (P04775 whole entry): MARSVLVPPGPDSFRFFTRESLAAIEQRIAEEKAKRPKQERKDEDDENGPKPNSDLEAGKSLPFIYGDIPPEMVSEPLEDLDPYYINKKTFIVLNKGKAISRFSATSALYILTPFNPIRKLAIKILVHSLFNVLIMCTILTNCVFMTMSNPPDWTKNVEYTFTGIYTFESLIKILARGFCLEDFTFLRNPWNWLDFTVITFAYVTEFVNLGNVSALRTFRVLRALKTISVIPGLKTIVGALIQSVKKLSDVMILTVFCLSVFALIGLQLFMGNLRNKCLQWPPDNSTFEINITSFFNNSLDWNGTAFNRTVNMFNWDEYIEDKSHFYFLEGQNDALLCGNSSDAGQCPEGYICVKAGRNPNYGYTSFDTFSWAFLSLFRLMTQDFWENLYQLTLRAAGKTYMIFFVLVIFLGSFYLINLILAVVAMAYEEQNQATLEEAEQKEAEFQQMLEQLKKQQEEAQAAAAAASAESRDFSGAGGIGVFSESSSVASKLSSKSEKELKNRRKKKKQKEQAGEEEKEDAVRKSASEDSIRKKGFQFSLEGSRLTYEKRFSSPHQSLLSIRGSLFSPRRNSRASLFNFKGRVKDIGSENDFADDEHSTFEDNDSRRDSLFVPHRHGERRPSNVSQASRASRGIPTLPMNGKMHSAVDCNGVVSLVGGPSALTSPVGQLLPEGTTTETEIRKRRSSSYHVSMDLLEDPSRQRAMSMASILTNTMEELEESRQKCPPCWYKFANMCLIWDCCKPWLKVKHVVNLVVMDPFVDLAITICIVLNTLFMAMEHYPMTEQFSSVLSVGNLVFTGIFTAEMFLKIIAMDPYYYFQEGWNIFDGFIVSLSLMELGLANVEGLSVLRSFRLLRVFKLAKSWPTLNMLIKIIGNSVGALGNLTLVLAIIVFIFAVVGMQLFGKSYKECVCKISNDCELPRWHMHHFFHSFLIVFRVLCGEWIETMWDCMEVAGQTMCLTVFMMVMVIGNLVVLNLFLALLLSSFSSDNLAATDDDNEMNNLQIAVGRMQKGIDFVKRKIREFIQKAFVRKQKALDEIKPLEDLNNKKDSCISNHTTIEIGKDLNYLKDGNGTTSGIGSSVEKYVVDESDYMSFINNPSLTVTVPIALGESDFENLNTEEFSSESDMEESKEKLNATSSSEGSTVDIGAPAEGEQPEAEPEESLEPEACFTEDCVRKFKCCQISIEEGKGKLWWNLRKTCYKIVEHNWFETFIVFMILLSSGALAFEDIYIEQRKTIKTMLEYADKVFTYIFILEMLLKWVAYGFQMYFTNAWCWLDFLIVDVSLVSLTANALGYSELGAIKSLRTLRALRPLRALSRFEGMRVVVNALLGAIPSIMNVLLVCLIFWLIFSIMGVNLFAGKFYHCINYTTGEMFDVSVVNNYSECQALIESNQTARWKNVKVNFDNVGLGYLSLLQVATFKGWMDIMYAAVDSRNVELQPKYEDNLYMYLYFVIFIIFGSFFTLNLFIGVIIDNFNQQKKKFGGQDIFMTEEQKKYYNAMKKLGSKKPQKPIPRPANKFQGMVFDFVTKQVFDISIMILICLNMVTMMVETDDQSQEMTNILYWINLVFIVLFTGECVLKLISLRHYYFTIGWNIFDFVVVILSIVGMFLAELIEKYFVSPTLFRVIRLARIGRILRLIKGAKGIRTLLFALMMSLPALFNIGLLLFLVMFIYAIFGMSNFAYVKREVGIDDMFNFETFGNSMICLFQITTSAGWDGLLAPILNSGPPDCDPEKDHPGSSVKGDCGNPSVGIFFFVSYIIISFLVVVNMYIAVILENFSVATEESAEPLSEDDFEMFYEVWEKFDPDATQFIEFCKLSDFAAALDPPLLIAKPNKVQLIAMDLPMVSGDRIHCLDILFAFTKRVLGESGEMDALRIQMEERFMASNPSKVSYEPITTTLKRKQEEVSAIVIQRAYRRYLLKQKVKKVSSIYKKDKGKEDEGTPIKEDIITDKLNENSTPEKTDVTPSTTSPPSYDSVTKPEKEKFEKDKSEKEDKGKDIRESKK
# T1 sequence (Q00954 19-218 partner): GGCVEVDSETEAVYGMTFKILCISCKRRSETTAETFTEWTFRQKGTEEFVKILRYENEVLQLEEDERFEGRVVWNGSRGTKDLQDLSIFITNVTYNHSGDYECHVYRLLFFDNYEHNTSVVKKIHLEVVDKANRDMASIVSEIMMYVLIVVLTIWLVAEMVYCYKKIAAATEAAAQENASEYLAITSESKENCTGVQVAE
# Kv1.7 = Kv1.7 (Homo sapiens, UniProt Q96RP8); assay: Cloned cardiac ion channel electrophysiology, Kv1.7; format: cell-based
# Sequence of Kv1.7 (Q96RP8 whole entry): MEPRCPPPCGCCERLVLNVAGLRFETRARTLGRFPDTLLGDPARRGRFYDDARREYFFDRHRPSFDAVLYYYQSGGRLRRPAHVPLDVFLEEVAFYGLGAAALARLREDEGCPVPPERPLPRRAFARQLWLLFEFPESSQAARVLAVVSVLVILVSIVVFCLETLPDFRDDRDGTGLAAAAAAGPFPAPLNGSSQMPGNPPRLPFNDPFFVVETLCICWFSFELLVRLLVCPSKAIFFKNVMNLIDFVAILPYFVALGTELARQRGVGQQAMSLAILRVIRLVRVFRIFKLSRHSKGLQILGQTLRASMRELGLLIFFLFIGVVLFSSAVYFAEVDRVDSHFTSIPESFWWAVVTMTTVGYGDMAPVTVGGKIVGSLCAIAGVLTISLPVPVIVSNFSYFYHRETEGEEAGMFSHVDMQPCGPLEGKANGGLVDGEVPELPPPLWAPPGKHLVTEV
# Procedure: Table S7-1. Table detailing composition (in mM) of external experimental assay solutions […]
# %Inhibition = (1 − IIntervention/IControl) × 100
# Equation 1 – Percentage Inhibition
# Inhibition of current (or leak-subtracted current) was calculated from steady-state current recorded in the absence (IControl) and presence of test-article (IIntervention).
# Equation 2 – Concentration-response curve
# Concentration-response data were fitted with a sigmoidal function of the form above, where YMin and YMax represent maximum and minimum current inhibition which were constrained to 100 and 0 respectively and x is the Log[DRUG (M)] based on GraphPad Prism analysis. % inhibition was calculated as in Equation 1.
# (also on this page, place not known: […] […] + −+= − HnxLogIC MinMax Min YYYInhibition )( 50101 )(% inhi bition Log[ DRUG analysis .) […]
# Nav = assay: Radioligand binding, rat cerebral cortex
# Neurokinin NK1 = molecular target: T2, Neurokinin NK1 (Homo sapiens, UniProt P25103); assay: Radioligand binding, [125I]-Substance P LYS3, U373MG uppsala; settings: read-out: % Specific Binding at 10 µM
# T2 construct: endogenous in cells; host or cells: U373MG uppsala
# [1] = Rat PK, IV/PO cross over and brain penetration; format: in vivo
# Ca = assay: Radioligand binding; settings: listed as Benzopyran-G1
# α1 adrenergic receptor = assay: Radioligand binding, [3H]prazosin; set-up: species or system rat
# Kir3.1(E141A/D173A) = Kir3.1(E141A/D173A) (Homo sapiens, UniProt P48544+P48549, D173A/E141A); format: cell-based; settings: 1 μM, TEVC
# Sequence of Kir3.1(E141A/D173A) (P48549 whole entry E141A/D173A): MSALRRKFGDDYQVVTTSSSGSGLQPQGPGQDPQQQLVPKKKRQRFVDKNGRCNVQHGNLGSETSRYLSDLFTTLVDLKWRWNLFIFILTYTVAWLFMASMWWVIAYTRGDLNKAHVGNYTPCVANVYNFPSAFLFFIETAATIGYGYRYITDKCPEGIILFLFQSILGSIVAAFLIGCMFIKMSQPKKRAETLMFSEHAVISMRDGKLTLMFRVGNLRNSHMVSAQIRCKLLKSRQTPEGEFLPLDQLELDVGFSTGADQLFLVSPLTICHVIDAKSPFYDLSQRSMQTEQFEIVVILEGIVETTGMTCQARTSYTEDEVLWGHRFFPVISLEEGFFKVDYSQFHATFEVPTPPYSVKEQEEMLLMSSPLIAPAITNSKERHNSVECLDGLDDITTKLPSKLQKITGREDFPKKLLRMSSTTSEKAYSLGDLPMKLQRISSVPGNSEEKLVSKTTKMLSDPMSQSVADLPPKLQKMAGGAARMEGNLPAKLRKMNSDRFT
# Sequence of Kir3.1(E141A/D173A) (P48544 whole entry): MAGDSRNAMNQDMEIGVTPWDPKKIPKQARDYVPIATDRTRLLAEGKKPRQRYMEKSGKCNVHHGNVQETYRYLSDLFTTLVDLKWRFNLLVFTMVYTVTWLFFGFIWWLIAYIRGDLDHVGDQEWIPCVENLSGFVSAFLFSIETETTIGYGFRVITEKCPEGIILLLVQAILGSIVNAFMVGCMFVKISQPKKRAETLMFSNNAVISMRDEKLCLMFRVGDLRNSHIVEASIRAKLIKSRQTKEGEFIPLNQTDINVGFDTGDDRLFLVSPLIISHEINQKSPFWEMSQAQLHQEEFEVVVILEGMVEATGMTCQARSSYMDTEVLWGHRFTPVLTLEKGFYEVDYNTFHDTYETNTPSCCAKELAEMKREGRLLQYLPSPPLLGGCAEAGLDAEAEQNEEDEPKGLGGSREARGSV
# [2] = Plasma protein binding, dog; format: in vitro ADME; settings: read-out: Dog PPB (converted)
# Kv1.5 = Kv1.5 (Homo sapiens, UniProt P22460); assay: Cloned cardiac ion channel manual patch clamp, Kv1.5; format: cell-based; settings: MPC (manual patch clamp)
# Sequence of Kv1.5 (P22460 whole entry): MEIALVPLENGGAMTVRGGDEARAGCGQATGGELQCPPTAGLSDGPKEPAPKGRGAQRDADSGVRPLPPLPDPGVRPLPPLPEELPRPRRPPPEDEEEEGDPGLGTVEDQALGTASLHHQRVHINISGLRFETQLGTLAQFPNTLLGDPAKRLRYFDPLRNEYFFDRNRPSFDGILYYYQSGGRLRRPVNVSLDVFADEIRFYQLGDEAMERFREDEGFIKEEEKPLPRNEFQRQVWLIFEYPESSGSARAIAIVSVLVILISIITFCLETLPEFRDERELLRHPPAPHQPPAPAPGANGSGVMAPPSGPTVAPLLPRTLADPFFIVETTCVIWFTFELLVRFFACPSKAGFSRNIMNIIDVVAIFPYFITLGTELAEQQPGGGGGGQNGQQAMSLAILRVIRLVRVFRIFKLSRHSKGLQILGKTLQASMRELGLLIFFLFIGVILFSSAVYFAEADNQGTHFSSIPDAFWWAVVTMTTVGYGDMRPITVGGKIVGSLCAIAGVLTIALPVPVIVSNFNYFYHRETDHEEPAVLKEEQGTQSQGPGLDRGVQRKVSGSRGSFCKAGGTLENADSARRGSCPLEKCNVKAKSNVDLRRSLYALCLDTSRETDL
# Procedure: For the data shown in Table S6, HEK293 cells expressing Kir3.1/4, Kir6.2/SUR2A (provided by Dr Andrew Tinker), Kir3.4, Kir2.1, and CHO cell lines stably expressing hERG KV1.5, KV4.3, NaV1.5 were maintained in media containing 10% FCS and appropriate selection antibiotic. Cells were grown either in suspension or in T-flasks and routinely passaged. Cells for patch clamping experiments were plated onto glass cover slips prior to use. Cells for automated patch clamping experiments were freshly prepared on each experimental day.
# Standard giga-seal whole-cell patch-clamp techniques were performed at room temperature using glass pipettes (2–5 MΩ). HEKA EPC9/10 amplifiers and Pulse software were used for data acquisition. Series resistance was compensated by >70%. Experimental solutions are given under Supporting information. […]
# Ionic current recordings were analyzed using HEKA software. […]
# Inhibition of current (or leak-subtracted current) was calculated from steady-state current recorded in the absence (IControl) and presence of test-article (IIntervention). […]
# Concentration-response data were fitted with a sigmoidal function of the form above, where YMin and YMax represent maximum and minimum current inhibition which were constrained to 100 and 0 respectively and x is the Log[DRUG (M)] based on GraphPad Prism analysis. % inhibition was calculated as in Equation 1. […]
# Adenosine A1 = molecular target: T3, Adenosine A1 (Homo sapiens, UniProt P30542); assay: Radioligand binding, [3H]DPCPX; settings: read-out: % Specific Binding at 10 µM
# T3 construct: expressed in transfected cells; host or cells: CHO cells
# T3 sequence (P30542 whole entry): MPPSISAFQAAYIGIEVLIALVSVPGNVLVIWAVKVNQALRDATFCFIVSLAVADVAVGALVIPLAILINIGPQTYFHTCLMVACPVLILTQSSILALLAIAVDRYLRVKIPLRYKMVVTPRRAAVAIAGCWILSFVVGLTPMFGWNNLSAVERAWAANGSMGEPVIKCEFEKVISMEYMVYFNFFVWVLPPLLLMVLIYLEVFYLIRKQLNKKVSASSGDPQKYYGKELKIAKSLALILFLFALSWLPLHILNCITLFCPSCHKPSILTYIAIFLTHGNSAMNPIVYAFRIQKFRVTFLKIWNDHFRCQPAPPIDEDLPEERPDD
# IKACh = assay: In vivo ECG, carbachol-induced heart rate slowing in anesthetized mice; settings: 40 μl of 240 μM via jugular vein
# Procedure: We tested the in vivo effects of BP-G1 versus those of BP-G1(SR) on heart rate in anesthetized adult mice (Fig. 8). ECG was continuously recorded. Panel A is the ECG showing that after carbachol (300 μl of 200 μM) was administered, i.p. (red mark), the heart decelerated, with a visible RR prolongation. About 10 min after carbachol injection, BP-G1 was delivered via the jugular vein (40 μl of 240 μM) (green mark). Within 5 min, there was a reversal of carbachol’s effects on the heart rate. Panel B is a control mouse showing heart rate slowing after carbachol administration (red mark).
# Mice were anesthetized (1.5% isofluorane), and a 1.2 French octapolar catheter (Millar) with a drug delivery port was placed transvenously, through the jugular vein, into the right atrium. Continuous ECG was recorded using the Animal Bio Amp and PowerLab 4/35 Advanced Instruments apparatus. […] Saline control at the same volume was performed. Results are averages ±SD.
# Kir2.1 = molecular target: T4, Kir2.1 (Homo sapiens, UniProt P63252); assay: Cloned cardiac ion channel manual patch clamp, Kir2.1; format: cell-based; settings: MPC (manual patch clamp)
# T4 construct: host or cells: HEK293
# T4 sequence (P63252 whole entry): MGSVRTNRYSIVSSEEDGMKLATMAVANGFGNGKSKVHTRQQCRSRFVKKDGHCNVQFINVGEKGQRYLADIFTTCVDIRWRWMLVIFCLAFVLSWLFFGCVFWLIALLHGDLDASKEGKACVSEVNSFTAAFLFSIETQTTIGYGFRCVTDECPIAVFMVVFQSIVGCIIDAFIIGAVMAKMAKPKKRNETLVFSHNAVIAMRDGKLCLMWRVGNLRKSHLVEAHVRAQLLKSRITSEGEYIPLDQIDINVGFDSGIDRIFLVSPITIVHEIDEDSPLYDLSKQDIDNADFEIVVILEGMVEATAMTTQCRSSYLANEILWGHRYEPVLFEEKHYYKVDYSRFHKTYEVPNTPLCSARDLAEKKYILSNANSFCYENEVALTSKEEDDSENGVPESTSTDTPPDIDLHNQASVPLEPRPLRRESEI
# [3] = Plasma protein binding, human; format: in vitro ADME; settings: read-out: Human PPB (converted)
smiles,measurement,setting,value
"Cc1cc(CO)nc2cc3c(cc12)OC(C)(C)[C@H](O)[C@H]3NCCc1ccccc1 [BP-G1, (3R,4S)-7-(hydroxymethyl)-2,2,9-trimethyl-4-(2-phenylethylamino)-3,4-dihydropyrano[2,3-g]quinolin-3-ol]",block of TTX-sensitive NaV1.2 currents,NaV1.2 and NaVβ1; 10 µM,did not block
same,average NaV1.2 current,"NaV1.2 and NaVβ1; 10 μM BP-G1, vehicle -2.16 ± 0.36 μA, mean ± SD, N=10",-2.17 μA
same,"IC50, NaV1.2",NaV1.2 and NaVβ1; Table S1,> 10 µM
same,IC50,Kv1.7,7 µM
same,% Specific Binding at 10 µM,Nav,65.1%
same,% Specific Binding at 10 µM,Nav; listed as Benzopyran-G1,65.100%
same,inhibition at 10 µM,Neurokinin NK1,42.6%
same,Co,[1]; 1mg/kg iv.,3941 ng/mL
same,CL,[1]; 5mg/kg po.,3.3 mL/min/kg
same,Kp,"[1]; rat, brain and plasma, 5mg/kg po., read-out: CNS Penetration (B:P)",0.2
same,Vd,"[1]; rat, in vivo, 1mg/kg iv.",1 L/kg
same,clearance,"[1]; rat, in vivo, 1mg/kg iv.",3.39 mL/min/kg
same,bioavailability,"[1]; rat, in vivo, 1mg/kg iv. / 5mg/kg po., read-out: Oral bioavailability F%",32%
same,AUC(0-inf),"[1]; rat, in vivo, 1mg/kg iv., read-out: Rat iv. AUC∞",4950 ng·h/mL
same,Cmax,"[1]; rat, in vivo, 5mg/kg po.",1190 ng/mL
same,AUC(0-t),"[1]; rat, in vivo, 5mg/kg po., read-out: Rat p.o. AUCt",6420 ng·h/mL
same,AUC(0-inf),"[1]; rat, in vivo, 5mg/kg po., read-out: Rat p.o. AUC∞",16800 ng·h/mL
same,half-life,"[1]; rat, in vivo, listed under 5mg/kg po.",12.2 h
same,% Specific Binding at 10 µM,Ca,42.600% and < 50%
same,IC50,α1 adrenergic receptor,13 µM
same,% Specific Binding at 10 µM,α1 adrenergic receptor,55.6%
same,% Specific Binding at 10 µM,α1 adrenergic receptor; listed as Benzopyran-G1,55.567%
same,Ki,"α1 adrenergic receptor; read-out: Ki, α1 (non-selective)",3.5 µM
same,"current block, Kir3.1(E141A/D173A)",Kir3.1(E141A/D173A),abolished any current block; also recorded: abolished the block
same,fraction unbound,[2],0.06
same,IC50,Kv1.5,16.3 µM
same,inhibition at 10 µM,Adenosine A1,38.4%
same,time to reversal of carbachol’s effects on the heart rate,IKACh,≤ 5 min
same,"RR interval 5 min after compound, given about 10 min after carbachol","IKACh; anesthetized mice, mean ± SD, N = 3",155.4 ± 5.5 ms
same,IC50,Kir2.1,> 10 µM
same,fraction unbound,[3],0.03

# Reference: PMC8086025, “A benzopyran with antiarrhythmic activity is an inhibitor of Kir3.1-containing potassium channels” (The Journal of Biological Chemistry, 2021)
